Patent US9409939B2, “Quantification method for remaining liver function and novel liver receptor imaging agent” (INSTITUTE OF NUCLEAR ENERGY RESEARCH ATOMIC ENERGY COUNCIL, …, priority 2009, dated 2016)
pIC50: −log10 of the molar value.

Tests used:
[1] = target: T1, ASGPR (Mus musculus, UniProt P24721+P34927); assay: Competition with Eu-ASOR for binding to murine hepatocyte (time-resolved fluorescence)
T1 construct: host or cells: murine hepatocytes (purchased, plated in 24-well plates)
T1 sequence (P34927 1-284): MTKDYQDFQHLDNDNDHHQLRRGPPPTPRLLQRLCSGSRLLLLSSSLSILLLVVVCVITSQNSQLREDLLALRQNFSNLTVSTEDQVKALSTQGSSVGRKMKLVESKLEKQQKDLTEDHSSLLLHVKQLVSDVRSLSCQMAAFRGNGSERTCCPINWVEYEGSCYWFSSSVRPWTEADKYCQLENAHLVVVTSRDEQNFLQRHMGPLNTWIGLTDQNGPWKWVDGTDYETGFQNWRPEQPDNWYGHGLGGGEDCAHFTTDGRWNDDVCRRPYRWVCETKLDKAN
T1 sequence (P24721 1-301): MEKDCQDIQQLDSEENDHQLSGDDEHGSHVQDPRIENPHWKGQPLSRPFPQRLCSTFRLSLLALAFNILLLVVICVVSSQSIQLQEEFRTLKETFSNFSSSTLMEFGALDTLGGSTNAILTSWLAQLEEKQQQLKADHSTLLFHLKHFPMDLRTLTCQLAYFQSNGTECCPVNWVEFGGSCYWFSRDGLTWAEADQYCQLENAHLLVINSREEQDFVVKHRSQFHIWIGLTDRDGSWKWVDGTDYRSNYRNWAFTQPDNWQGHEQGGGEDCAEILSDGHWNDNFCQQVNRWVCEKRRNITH
Procedure: The murine hepatocyte (from Lonza Biotechnology Company, Maryland) is plated in a 24-well plate in advance, and the reaction occurs in each well, into which (i) Eu-ASOR 10 nM (ii) hepatocyte basic medium with 5 mM calcium chloride, and (iii) five different concentrations of saccharide chain peptide of 1 uM-0.8 nM are added. After culturing with shaking for 1 hr, the substance that has not been bound to hepatocyte is removed by washing with the hepatocyte basic medium containing calcium chloride.
Time-resolved fluorescence spectroscopy is preformed, that is, an enhancement solution (15 uM β-naphthoyl trifluoroacetone, 50 uM tri-n-octyl-phosphine oxide, 0.1% triton X-100 in 0.1M acetic acid, titrated with potassium hydrogen phthalate to pH 3.2) is added. The enhancement solution reacts with Eu^3+ to form a Eu chelate, which can emit a light of 615 nm when being excited at 340 nm. With the logarithm of the concentration of saccharide chain peptide as X axis, the emitted fluorescence value as Y axis, the fluorescence value without adding glycopeptide being set as 100%, the IC50 of each saccharide chain peptide can be calculated accordingly.

[2] = test system: normal rat cells (Clone 9); assay: MTT cell toxicity test, Clone 9; type: cell-based; details: Clone 9, concentration 10^3 times of 0.01 μM, 24 hr, 48 hr
Procedure: (§1) MTT, i.e. 3-(4,5-cimethyl-thiazol-2-yl)-2,5-diphenyl tetrazolium bromide, can be metabolized by succinate dehydrogenase of cell mitochondria into blue MTT formazan, and thus is widely used to detect cell viability. The experimental method includes: adding 0, 0.001 μM, 0.01 μM, 0.1 μM, 1 μM, and 10 μM hexa-lactoside into 1×10^6 normal rat cells (Clone 9) and normal mouse cells (FL83B), respectively; after culturing for 24 hr, 48 hr, adding MTT; and 4 hr later, dissolving the cells with DMSO. The blue MTT formazan is soluble in the solution. The absorption of the solution at 570 nm is detected. With the absorption at 570 nm without adding hexa-lactoside as 100% of cell viability, the experimental groups with hexa-lactoside added are compared with the normal group without adding hexa-lactoside, to get the cell viability of the experimental groups. FIG. 10 is a comparison of cell viability of hexa-lactoside in normal rat cell (Clone 9), and FIG. 11 is a comparison of cell viability of hexa-lactoside in normal mouse cell (FL83B), in which the concentration used presently is 0.01 μM.

[3] = test system: normal mouse cells (FL83B); assay: MTT cell toxicity test, FL83B; type: cell-based; details: concentration 10^3 times of 0.01 μM, 24 hr, 48 hr
Procedure: as §1

In the case of `CC(=O)N[C@H]1[C@H](OCCCCCCNC(=O)CNC(=O)CN(CC(=O)NCC(=O)NCCCCCCO[C@@H]2O[C@H](CO)[C@H](O)[C@H](O)[C@H]2NC(C)=O)[C@@H](CCCCN)C(=O)NCC(=O)NCCCCCCO[C@@H]2O[C@H](CO)[C@H](O)[C@H](O)[C@H]2NC(C)=O)O[C@H](CO)[C@H](O)[C@@H]1O` [DCM-Lys(GahGalNAc)3, DCM-Lys(Gah-GalNAc)3], the “binding to ASGPR relative to YEE or YDD” value ([1]; compared with YEE or YDD) was 10 times.
For `NCCCCCC(=O)N[C@@H](CC(=O)NCCCC[C@@H](C(=O)NCCCCCCOC1O[C@H](CO)[C@@H](O[C@@H]2O[C@H](CO)[C@H](O)[C@H](O)[C@H]2O)[C@H](O)[C@H]1O)N(CC(=O)NCCCCCCOC1O[C@H](CO)[C@@H](O[C@@H]2O[C@H](CO)[C@H](O)[C@H](O)[C@H]2O)[C@H](O)[C@H]1O)CC(=O)NCCCCCCOC1O[C@H](CO)[C@@H](O[C@@H]2O[C@H](CO)[C@H](O)[C@H](O)[C@H]2O)[C@H](O)[C@H]1O)C(=O)NCCCC[C@@H](C(=O)NCCCCCCOC1O[C@H](CO)[C@@H](O[C@@H]2O[C@H](CO)[C@H](O)[C@H](O)[C@H]2O)[C@H](O)[C@H]1O)N(CC(=O)NCCCCCCOC1O[C@H](CO)[C@@H](O[C@@H]2O[C@H](CO)[C@H](O)[C@H](O)[C@H]2O)[C@H](O)[C@H]1O)CC(=O)NCCCCCCOC1O[C@H](CO)[C@@H](O[C@@H]2O[C@H](CO)[C@H](O)[C@H](O)[C@H]2O)[C@H](O)[C@H]1O` (stereo partly shown) [AHA-Asp[DCM-Lys(ahLac)3]2, AHA-Asp[DCM-Lys(ah-Lac)3]2], the “cell viability (MTT)” value [2] was 100% and the “cell viability (MTT)” value [3] was 100%.
`CC(=O)N[C@H]1[C@H](OCCCCCCNC(=O)CNC(=O)C[C@H](NC(=O)[C@H](CC(=O)NCC(=O)NCCCCCCO[C@@H]2O[C@H](CO)[C@H](O)[C@H](O)[C@H]2NC(C)=O)NC(=O)[C@@H](N)Cc2ccc(O)cc2)C(=O)NCC(=O)NCCCCCCO[C@@H]2O[C@H](CO)[C@H](O)[C@H](O)[C@H]2NC(C)=O)O[C@H](CO)[C@H](O)[C@@H]1O` [YDD(GahGalNAc)3, reference compound] showed a pIC50 [1] of 8.00.
